# Test results: US11214835B1, “Methods and compositions for diagnosis and management of neurodegerative diseases” (UNIVERSITY OF SOUTH FLORIDA, priority 2017, dated 2022)
# Test system: GAS5 transcript
# Test: RNA-EMSA (REMSA) of compound binding to biotin-labeled GAS5 transcript
# Conditions: 0.1 nM biotin-labeled GAS5, 10 nM compound, yeast tRNA, 20 min at room temperature
# Procedure: RNA-EMSA was performed as previously described (see e.g. Apostolatos, H., Apostolatos, A., Vickers, T., Watson, J. E., Song, S., Vale, F., Cooper, D. R., Sanchez-Ramos, J., and Patel, N. A. (2010) Vitamin A metabolite, all-trans-retinoic acid, mediates alternative splicing of protein kinase C deltaVIII (PKCdeltaVIII) isoform via splicing factor SC35. J Biol Chem 285, 25987-25995 and Patel, R. S., Carter, G., Cooper, D. R., Apostolatos, H., and Patel, N. A. (2014) Transformer 2beta homolog (Drosophila) (TRA2B) regulates protein kinase C deltaI (PKCdeltaI) splice variant expression during 3T3L1 preadipocyte cell cycle. J Biol Chem 289, 31662-31672
# Briefly, GAS5 was cloned in TOPO vector which has the T7 promoter. […] 0.1 nM of transcribed, biotin-labeled GAS5 was incubated with 10 nM G5-1397 in presence of 10U yeast tRNA and 10 units of RNase inhibitor in a final volume of 10 μl of RNA shift buffer for 20 min at room temperature and detected using Biotin Chromogenic Detection kit (ThermoFisher). […]
# As the compound(s) were designed to bind to GAS5 such that it would disrupt binding to UPF1, the compound(s) ability to bind to GAS5 was examined. […] Next, it was evaluated whether NPG567 could stabilize GAS5 in HT22 cells over-expressing UPF1 (from Addgene). […] GAS5 levels were measured using SYBR Green qPCR. […]
smiles,measurement,value
NCCCC[C@H]1CN(C(=O)CCc2ccccc2)CC(=O)N[C@@H](CCC(=O)O)CN(CC(N)=O)C(=O)CCSCc2ccc(cc2)C(=O)N[C@@H](CCC(=O)O)CN(C(=O)CCC(=O)O)CC(=O)N[C@@H](CCCCN)CN(C(=O)CCCN)CC(=O)N1 [NPG567],binding to GAS5 transcript in RNA-EMSA,can bind to GAS5 transcript
CC(C)C[C@H]1CN(C(=O)CC2CC2)CC(=O)N[C@@H](CCCCN)CN(C(=O)CCc2ccccc2)CC(=O)N[C@@H](Cc2ccccc2)CN(CC(N)=O)C(=O)CCSCc2ccc(cc2)C(=O)N[C@@H](Cc2ccccc2)CN(C(=O)CC2CC2)CC(=O)N1 [Formula G5-1397],binding to GAS5 transcript in RNA-EMSA,bound to GAS5 transcript
